Measurements reported in ChEMBL document CHEMBL1909046, “DrugMatrix in vitro pharmacology data”.
pIC50, pKi: −log10 of the molar value.

Tests used:
[1] = molecular target: Beta-1 adrenergic receptor (Homo sapiens, UniProt P08588); experiment: DRUGMATRIX: Adrenergic beta1 radioligand binding (ligand: [125I] Cyanopindolol); assay type: cell membranes, CHO-K1, Membrane; settings: Not Active = under 50% inhibition at 10 µM; for IC50: cho-k1
[2] = DRUGMATRIX: beta-Lactamase enzyme inhibition (substrate: Nitrocefin); parameters: species or system Bacillus cereus; settings: Not Active = under 50% inhibition at 10 µM
[3] = molecular target: Sigma non-opioid intracellular receptor 1 (Homo sapiens, UniProt Q99720); experiment: DRUGMATRIX: Sigma1 radioligand binding (ligand: [3H] Haloperidol); assay type: cell membranes, Jurkat, Membrane; settings: Not Active = under 50% inhibition at 10 µM; for IC50: jurkat
Sigma non-opioid intracellular receptor 1, sequence (Q99720 whole entry): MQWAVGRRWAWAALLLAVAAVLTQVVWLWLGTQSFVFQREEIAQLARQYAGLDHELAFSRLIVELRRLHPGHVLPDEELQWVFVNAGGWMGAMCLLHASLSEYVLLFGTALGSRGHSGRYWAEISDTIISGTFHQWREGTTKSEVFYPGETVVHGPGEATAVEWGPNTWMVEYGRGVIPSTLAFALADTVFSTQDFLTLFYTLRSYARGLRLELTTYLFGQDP

[4] = molecular target: Kappa-type opioid receptor (Homo sapiens, UniProt P41145); experiment: DRUGMATRIX: Opiate kappa (OP2, KOP) radioligand binding (ligand: [3H] Diprenorphine); assay type: cell membranes, HEK293, Membrane; settings: hek293; Not Active = under 50% inhibition at 10 µM
Kappa-type opioid receptor, sequence (P41145 whole entry): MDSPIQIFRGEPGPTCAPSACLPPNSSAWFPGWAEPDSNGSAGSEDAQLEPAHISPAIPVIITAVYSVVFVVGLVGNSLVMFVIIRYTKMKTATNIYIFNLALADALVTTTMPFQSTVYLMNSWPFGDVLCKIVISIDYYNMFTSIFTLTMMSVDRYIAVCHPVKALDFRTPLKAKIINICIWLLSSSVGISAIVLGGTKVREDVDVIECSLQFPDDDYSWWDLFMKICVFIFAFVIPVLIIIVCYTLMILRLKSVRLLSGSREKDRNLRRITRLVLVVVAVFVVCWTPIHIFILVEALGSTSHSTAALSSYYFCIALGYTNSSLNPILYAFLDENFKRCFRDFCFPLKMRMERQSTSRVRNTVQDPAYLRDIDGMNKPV

[5] = DRUGMATRIX: Platelet-Derived Growth Factor (PDGF) radioligand binding (ligand: [125I] PDGF); assay type: cell-based; settings: nih3t3; Not Active = under 50% inhibition at 10 µM
[6] = molecular target: T1, Cathepsin G (Homo sapiens, UniProt P08311); assay type: tissue-based; settings: neutrophil;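 note: inhibition of Cathepsin G enzyme activity, tested on an AMC-conjugated peptide substrate; in other assays of this panel Not Active means under 50% inhibition at 10 µM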
T1 sequence (P08311 whole entry): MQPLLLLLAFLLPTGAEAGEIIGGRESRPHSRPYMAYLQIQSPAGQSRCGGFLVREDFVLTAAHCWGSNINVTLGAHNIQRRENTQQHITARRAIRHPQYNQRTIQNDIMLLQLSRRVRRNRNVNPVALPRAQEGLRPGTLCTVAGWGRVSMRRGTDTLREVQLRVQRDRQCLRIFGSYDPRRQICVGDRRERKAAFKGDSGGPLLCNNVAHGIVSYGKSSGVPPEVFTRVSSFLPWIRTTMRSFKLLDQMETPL

[7] = molecular target: Protein phosphatase 3 catalytic subunit alpha (Homo sapiens, UniProt Q08209); parameters: species or system Escherichia coli;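 note: inhibition of calcineurin (PP2B) enzyme activity, measured with DiFMUP as the substrate; in other assays of this panel Not Active means under 50% inhibition at 10 µM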

Beta-1 adrenergic receptor, sequence (P08588 whole entry): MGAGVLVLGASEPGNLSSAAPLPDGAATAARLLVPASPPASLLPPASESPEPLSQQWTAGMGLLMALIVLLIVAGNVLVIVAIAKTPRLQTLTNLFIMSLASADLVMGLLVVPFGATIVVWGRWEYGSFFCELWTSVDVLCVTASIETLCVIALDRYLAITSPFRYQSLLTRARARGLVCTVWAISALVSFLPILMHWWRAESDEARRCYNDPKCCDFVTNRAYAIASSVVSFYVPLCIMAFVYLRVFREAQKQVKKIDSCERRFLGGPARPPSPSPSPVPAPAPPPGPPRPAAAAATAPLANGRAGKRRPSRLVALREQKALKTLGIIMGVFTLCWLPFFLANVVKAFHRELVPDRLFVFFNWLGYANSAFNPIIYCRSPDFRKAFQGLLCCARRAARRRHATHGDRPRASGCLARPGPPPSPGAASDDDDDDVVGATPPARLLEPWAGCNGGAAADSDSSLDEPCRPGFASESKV

SMILES	pIC50 ([1]; read-out: IC50)	pKi ([1]; read-out: Ki)	IC50 [2]	Ki [2]	IC50 [3]	IC50 [4]	IC50 [5]	Ki [5]	IC50 [6]	IC50 [7]	IC50 [1]	pIC50 ([3]; read-out: IC50)	pKi ([3]; read-out: Ki)
CC(C)NCC(O)c1ccccc1Cl (centres undefined) [CLORPRENALINE]	5.59	5.82	Not Active	Not Active	Not Active	Not Active	Not Active	Not Active	Not Active	Not Active			
CN1C[C@@H]2C[C@H]1CN2c1cc2c(cc1F)c(=O)c(C(=O)O)cn2C1CC1 [DANOFLOXACIN]			Not Active	Not Active	Not Active	Not Active	Not Active	Not Active	Not Active	Not Active	Not Active		
COc1cccc2c1C(=O)c1c(O)c3c(c(O)c1C2=O)C[C@@](O)(C(C)=O)C[C@@H]3O[C@H]1C[C@H](N)[C@H](O)[C@H](C)O1 [DAUNORUBICIN]			Not Active	Not Active	Not Active	Not Active	Not Active	Not Active	Not Active	Not Active	Not Active		
O=C(O)c1cc(-c2ccc(F)cc2F)ccc1O [DIFLUNISAL]			Not Active	Not Active	Not Active	Not Active	Not Active	Not Active	Not Active	Not Active	Not Active		
C[S+](C)[O-] [DIMETHYL SULFOXIDE]			Not Active	Not Active	Not Active	Not Active	Not Active	Not Active	Not Active	Not Active	Not Active		
CC1=NN(c2ccccc2)C(=O)C1 [EDARAVONE]			Not Active	Not Active	Not Active	Not Active	Not Active	Not Active	Not Active	Not Active	Not Active		
CC(C)C[C@H]1C(=O)N2CCC[C@H]2[C@]2(O)O[C@](NC(=O)[C@@H]3C=C4c5cccc6[nH]cc(c56)C[C@H]4N(C)C3)(C(C)C)C(=O)N12 [ERGOCRYPTINE]			Not Active	Not Active	Not Active	Not Active	Not Active	Not Active	Not Active	Not Active	Not Active		
C[C@]12CC[C@@H]3c4ccc(O)cc4CC[C@H]3[C@@H]1C[C@@H](O)[C@@H]2O [ESTRIOL]			Not Active	Not Active	Not Active	Not Active	Not Active	Not Active	Not Active	Not Active	Not Active		
C#C[C@]1(O)CC[C@H]2[C@@H]3CCC4=CC(=O)CC[C@]4(C)[C@H]3CC[C@@]21C [ETHISTERONE]			Not Active	Not Active	Not Active	Not Active	Not Active	Not Active	Not Active	Not Active	Not Active		
CC(O)(P(=O)(O)O)P(=O)(O)O [ETIDRONIC ACID]			Not Active	Not Active	Not Active	Not Active	Not Active	Not Active	Not Active	Not Active	Not Active		
CC(C)(C(=O)O)c1ccc(C(O)CCCN2CCC(C(O)(c3ccccc3)c3ccccc3)CC2)cc1 (centres undefined) [FEXOFENADINE]			Not Active	Not Active	Not Active	Not Active	Not Active	Not Active	Not Active	Not Active	Not Active		
CN1CCN(c2c(F)cc3c(=O)c(C(=O)O)cn(CCF)c3c2F)CC1 [FLEROXACIN]			Not Active	Not Active	Not Active	Not Active	Not Active	Not Active	Not Active	Not Active	Not Active		
O=c1[nH]c(=O)n([C@H]2C[C@H](O)[C@@H](CO)O2)cc1F [FLOXURIDINE]			Not Active	Not Active	Not Active	Not Active	Not Active	Not Active	Not Active	Not Active	Not Active		
COC(=O)Nc1nc2cc(C(=O)c3ccc(F)cc3)ccc2[nH]1 [FLUBENDAZOLE]			Not Active	Not Active	Not Active	Not Active	Not Active	Not Active	Not Active	Not Active	Not Active		
CC(=O)OCC(=O)[C@@]1(O)CC[C@H]2[C@@H]3CCC4=CC(=O)CC[C@]4(C)[C@@]3(F)[C@@H](O)C[C@@]21C [FLUDROCORTISONE ACETATE]			Not Active	Not Active	Not Active	Not Active	Not Active	Not Active	Not Active	Not Active	Not Active		
CCOC(=O)c1ncn2c1CN(C)C(=O)c1cc(F)ccc1-2 [FLUMAZENIL]			Not Active	Not Active	Not Active	Not Active	Not Active	Not Active	Not Active	Not Active	Not Active		
CC(=O)OCC(=O)[C@@]12OC(C)(C)O[C@@H]1C[C@H]1[C@@H]3C[C@H](F)C4=CC(=O)C=C[C@]4(C)[C@@]3(F)[C@@H](O)C[C@@]12C [FLUOCINONIDE]			Not Active	Not Active	Not Active	Not Active	Not Active	Not Active	Not Active	Not Active	Not Active		
O=C(O)P(=O)(O)O [FOSCARNET]			Not Active	Not Active	Not Active	Not Active	Not Active	Not Active	Not Active	Not Active	Not Active		
Cc1ccc(C)c(OCCCC(C)(C)C(=O)O)c1 [GEMFIBROZIL]			Not Active	Not Active	Not Active	Not Active	Not Active	Not Active	Not Active	Not Active	Not Active		
O=c1c(-c2ccc(O)cc2)coc2cc(O)cc(O)c12 [GENISTEIN]			Not Active	Not Active	Not Active	Not Active	Not Active	Not Active	Not Active	Not Active	Not Active		
CCC1=C(C)CN(C(=O)NCCc2ccc(S(=O)(=O)NC(=O)N[C@H]3CC[C@H](C)CC3)cc2)C1=O [GLIMEPIRIDE]			Not Active	Not Active	Not Active	Not Active	Not Active	Not Active	Not Active	Not Active	Not Active		
Nc1cc(-c2ccncc2)c[nH]c1=O [INAMRINONE]			Not Active	Not Active	Not Active	Not Active	Not Active	Not Active	Not Active	Not Active	Not Active		
CCCCC1=NC2(CCCC2)C(=O)N1Cc1ccc(-c2ccccc2-c2nnn[nH]2)cc1 [IRBESARTAN]			Not Active	Not Active	Not Active	Not Active	Not Active	Not Active	Not Active	Not Active	Not Active		
N[C@@H](Cn1ccc(=O)c(O)c1)C(=O)O [L-MIMOSINE]			Not Active	Not Active	Not Active	Not Active	Not Active	Not Active	Not Active	Not Active	Not Active		
C[C@H]1COc2c(N3CCN(C)CC3)c(F)cc3c(=O)c(C(=O)O)cn1c23.C[C@H]1COc2c(N3CCN(C)CC3)c(F)cc3c(=O)c(C(=O)O)cn1c23.O [LEVOFLOXACIN]			Not Active	Not Active	Not Active	Not Active	Not Active	Not Active	Not Active	Not Active	Not Active		
CCn1cc(C(=O)O)c(=O)c2cc(F)c(N3CCNC(C)C3)c(F)c21 (centres undefined) [LOMEFLOXACIN]			Not Active	Not Active	Not Active	Not Active	Not Active	Not Active	Not Active	Not Active	Not Active		
CN1CCCC(CN2c3ccccc3Sc3ccccc32)C1 (centres undefined) [MEPAZINE]			Not Active	Not Active		Not Active	Not Active	Not Active	Not Active	Not Active	Not Active	6.74	7.12
Cc1cccc(C)c1NC(=O)C1CCCCN1C (centres undefined) [MEPIVACAINE]			Not Active	Not Active	Not Active	Not Active	Not Active	Not Active	Not Active	Not Active	Not Active		
